Key:
[1] = molecular target: T1, Human immunodeficiency virus type 1 protease (Human immunodeficiency virus 1, UniProt Q72874); assay: Ability to inhibit HIV-1 protease was determined using spectrofluorimetric assay.
[2] = molecular target: T1, Human immunodeficiency virus type 1 protease; assay: Binding affinity for HIV-1 protease was determined.
CCRF-CEM [3] = assay: Antiviral activity against HIVIIIB strain of HIV-1 was determined in an CEM based assay; assay type: functional, cell-based; details: Homo sapiens
[4] = molecular target: T1, Human immunodeficiency virus type 1 protease; assay: Binding affinity for HIV-1 protease was determined in vitro
[5] = molecular target: T1, Human immunodeficiency virus type 1 protease; assay: Binding affinity for HIV-1 protease was determined
[6] = molecular target: T1, Human immunodeficiency virus type 1 protease; assay: Ability to inhibit HIV-1 protease was determined using spectrofluorimetric assay
[7] = Toxicity in CEM cells infected with HIVIIIB strain of HIV-1; assay type: cell-based; details: human, CEM (CCRF-CEM) cells infected with HIV-1 strain IIIB; read-out: TD50 (the source's name)
CCRF-CEM [8] = assay: Antiviral activity against HIVIIIB strain of HIV-1 was determined in an CEM based assay.; assay type: functional, cell-based; details: Homo sapiens
[9] = molecular target: T1, Human immunodeficiency virus type 1 protease; assay: Binding affinity for HIV-1 protease was determined in vitro.

| SMILES | IC50 [1] [nM] | Ki [2] [nM] | Ki [5] [nM] | IC50 [6] [nM] | further results |
| --- | --- | --- | --- | --- | --- |
| CC(C)CCN(C[C@@H](O)[C@H](Cc1ccccc1)NC(=O)OCc1ccccc1)S(=O)(=O)Cc1ccccc1 | 10000 |  |  |  |  |
| CCCS(=O)(=O)N(CCC(C)C)C[C@@H](O)[C@H](Cc1ccccc1)NC(=O)OCc1ccccc1 | 210 | 128 |  |  |  |
| CC(C)CN(C[C@@H](O)[C@H](Cc1ccccc1)NC(=O)OCc1ccccc1)S(=O)(=O)c1ccccc1 |  |  |  |  | EC50 (CCRF-CEM [3]): 113 nM; Ki [4]: 3.2 nM |
| CC(C)CCN(C[C@@H](O)[C@H](Cc1ccccc1)NC(=O)[C@H](CC(N)=O)NC(=O)OCc1ccccn1)S(=O)(=O)c1ccccc1 |  |  | 0.5 | 2.2 |  |
| O=C(N[C@@H](Cc1ccccc1)[C@H](O)CN(Cc1ccccc1)S(=O)(=O)c1ccccc1)OCc1ccccc1 |  |  | 125 | 190 |  |
| CC(C)CCN(C[C@@H](O)[C@H](Cc1ccccc1)NC(=O)OCc1ccccc1)S(=O)(=O)c1ccc(Cl)cc1 | 10 | 4.1 |  |  |  |
| CC(C)CCN(C[C@@H](O)[C@H](Cc1ccccc1)NC(=O)OCc1ccccc1)S(=O)(=O)c1ccccc1Cl | 380 | 227 |  |  |  |
| CC(C)CCN(C[C@@H](O)[C@H](Cc1ccccc1)NC(=O)[C@H](CC(N)=O)NC(=O)c1ccc2ccccc2n1)S(C)(=O)=O |  |  |  |  | EC50 (CCRF-CEM [3]): 53 nM; CC50 [7]: 45000 nM; Ki [4]: 13 nM |
| CC(C)CCN(C[C@@H](O)[C@H](Cc1ccccc1)NC(=O)OCc1ccccc1)S(C)(=O)=O |  |  | 1870 | 3200 |  |
| O=C(N[C@@H](Cc1ccccc1)[C@H](O)CN(CC1CCCCC1)S(=O)(=O)c1ccccc1)OCc1ccccc1 |  |  | 6.7 | 14 |  |
| CC(C)CCN(C[C@@H](O)[C@H](Cc1ccccc1)NC(=O)[C@H](CC(N)=O)NC(=O)OCc1ccccc1)S(C)(=O)=O |  |  | 57 | 100 |  |
| CC(C)CCN(C[C@H](O)[C@H](Cc1ccccc1)NC(=O)OCc1ccccc1)S(=O)(=O)c1ccccc1 | 450 | 295 |  |  |  |
| CC(C)CCN(C[C@@H](O)[C@H](Cc1ccccc1)NC(=O)OCc1ccccc1)S(=O)(=O)c1ccccc1 |  |  |  |  | EC50 (CCRF-CEM [8]): 55 nM; Ki [9]: 10 nM; CC50 [7]: 26000 nM |
| CC(C)CCN(C[C@@H](O)[C@H](Cc1ccccc1)NC(=O)[C@H](CC(N)=O)NC(=O)c1ccc2ccccc2n1)S(=O)(=O)c1ccccc1 |  |  |  |  | EC50 (CCRF-CEM [3]): 5 nM; CC50 [7]: 203000 nM |
| CC(C)CCN(C[C@@H](O)[C@H](Cc1ccccc1)NC(=O)OCc1ccccc1)S(=O)(=O)c1cccc(Cl)c1 | 92 | 61 |  |  |  |

— ChEMBL document CHEMBL1128235, “Inhibitors of HIV-1 protease containing the novel and potent (R)-(hydroxyethyl)sulfonamide isostere” (J Med Chem, 1995)
